This note sets out measurements from ChEMBL document CHEMBL4261632, “Synthesis of five libraries of 6,5-fused heterocycles to establish the importance of the heterocyclic core for antiplasmodial activity” (Bioorg Med Chem, 2018).

The test has as its system Plasmodium falciparum. The test can be described thus: Antiplasmodial activity against chloroquine-sensitive Plasmodium falciparum NF54. Format: functional, organism-based.
Where [1] appears, read: Plasmodium falciparum, NF54, read-out: EC50.

In general, EC50 refers to the concentration giving half of the maximal effect. `O=C(OCc1ccccc1)c1cc2c(OC3CCNCC3)cccc2s1`: the EC50 under setting [1] is 5.69 µM.

On to `Cc1c(C(=O)NCc2ccccc2)[nH]c2cccc(OC3CCNCC3)c12`, for which the concentration giving a half-maximal response (EC50) under setting [1] amounted to 6.11 µM.

Regarding `Cl.O=C(OCc1cccc2ccccc12)c1nc2c(OC3CCNCC3)cccc2o1`, the EC50 entry was “Not Active”.

As for `O=C(NCc1cccc2ccccc12)c1cc2c(OC3CCNCC3)cccc2[nH]1`, the EC50 under setting [1] was 0.9 µM.

For `O=C(OCCc1ccccc1)c1cc2c(OC3CCNCC3)cccc2s1`, the half-maximal effective concentration (EC50) under setting [1] was 5.87 µM.

As to `O=C(OCc1ccccc1)c1cc2c(OC3CCNCC3)cccc2[nH]1`, the EC50 under setting [1] came to 3.39 µM.

For `O=C(NCc1ccccc1)c1cc2c(OC3CCNCC3)cccc2s1`, the EC50 under setting [1] came to 3.48 µM.

For the compound `O=C(OCCc1ccccc1)c1cc2c(OC3CCNCC3)cccc2[nH]1`, the half-maximal effective concentration (EC50) under setting [1] stood at 6.53 µM.

With `Cl.O=C(NCCc1ccccc1)c1nc2c(OC3CCNCC3)cccc2o1`, the EC50 result is given as “Not Active”.

Regarding `Cc1c(C(=O)NCc2cccc3ccccc23)[nH]c2cccc(OC3CCNCC3)c12`, under setting [1], the EC50 is 0.74 µM.

On to `O=C(NCc1ccccc1)c1cc2c(OC3CCNCC3)cccc2[nH]1`, for which the EC50 under setting [1] worked out at 3.74 µM.

In the case of `O=C(OCc1cccc2ccccc12)c1cc2c(OC3CCNCC3)cccc2s1`, the EC50 under setting [1] was found to be 1.9 µM.

As to `O=C(OCc1cccc2ccccc12)c1cc2c(OC3CCNCC3)cccc2[nH]1`, the EC50 under setting [1] came to 0.83 µM.

On to `Cn1c(C(=O)OCc2cccc3ccccc23)nc2cccc(OC3CCNCC3)c21`, for which the concentration giving a half-maximal response (EC50) under setting [1] is 7.37 µM.

Consider `Cn1c(C(=O)NCc2cccc3ccccc23)nc2cccc(OC3CCNCC3)c21`, for which the half-maximal effective concentration (EC50) under setting [1] was 1.15 µM.

Regarding `Cc1c(C(=O)NCCc2ccccc2)[nH]c2cccc(OC3CCNCC3)c12`, the EC50 under setting [1] is 3.4 µM.

In the case of `Cl.O=C(OCc1ccccc1)c1nc2c(OC3CCNCC3)cccc2o1`, the 50% effective concentration (EC50) entry is on record as “Not Active”.

Turning to `Cc1c(C(=O)OCc2cccc3ccccc23)[nH]c2cccc(OC3CCNCC3)c12`, under setting [1], the EC50 came out at 0.74 µM.

On to `O=C(NCc1cccc2ccccc12)c1nc2c(OC3CCNCC3)cccc2o1`, for which the EC50 under setting [1] turned out to be 1.96 µM.

With `O=C(NCc1cccc2ccccc12)c1cc2c(OC3CCNCC3)cccc2s1`, the half-maximal effective concentration (EC50) under setting [1] was determined as 0.71 µM.

Consider `Cl.O=C(OCCc1ccccc1)c1nc2c(OC3CCNCC3)cccc2o1`, for which the EC50 result is reported as “Not Active”.

`Cl.O=C(NCc1ccccc1)c1nc2c(OC3CCNCC3)cccc2o1`: the EC50 result is on record as “Not Active”.

On to `Cc1c(C(=O)OCCc2ccccc2)[nH]c2cccc(OC3CCNCC3)c12`, for which the EC50 under setting [1] turned out to be 3.9 µM.

Take `O=C(NCCc1ccccc1)c1cc2c(OC3CCNCC3)cccc2s1`: the concentration for a half-maximal effect (EC50) under setting [1] came out at 3.01 µM.

Consider `Cn1c(C(=O)NCc2ccccc2)nc2cccc(OC3CCNCC3)c21`, for which the 50% effective concentration (EC50) under setting [1] was determined as 8.8 µM.

Take `Cn1c(C(=O)OCc2ccccc2)nc2cccc(OC3CCNCC3)c21`: the EC50 under setting [1] was found to be 13.3 µM.

Regarding `Cn1c(C(=O)NCCc2ccccc2)nc2cccc(OC3CCNCC3)c21`, the EC50 under setting [1] is 8.69 µM.

As for `Cn1c(C(=O)OCCc2ccccc2)nc2cccc(OC3CCNCC3)c21`, under setting [1], the concentration for a half-maximal effect (EC50) stood at 11.1 µM.

On to `O=C(NCCc1ccccc1)c1cc2c(OC3CCNCC3)cccc2[nH]1`, for which the EC50 under setting [1] amounted to 3.1 µM.

On to `Cc1c(C(=O)OCc2ccccc2)[nH]c2cccc(OC3CCNCC3)c12`, for which, under setting [1], the EC50 stood at 0.56 µM.

For `C[C@H]1[C@H](OC(=O)CCC(=O)O)O[C@@H]2O[C@@]3(C)CC[C@H]4[C@H](C)CC[C@@H]1[C@@]24OO3` [ARTESUNATE], under setting [1], the EC50 was found to be 0.00941 µM.

With `CCN(CC)CCCC(C)Nc1ccnc2cc(Cl)ccc12` (configuration not stated) [CHLOROQUINE], under setting [1], the EC50 was determined as 0.013 µM.
